Laboratory results published in ChEMBL document CHEMBL1130486, “Novel 5-amino-6-methylquinolone antibacterials: A new class of non-6-fluoroquinolones” (1997).
Values after ≈ are worked out from the molar mass of the structure shown.

Assays:
[1] = system: Acinetobacter calcoaceticus; assay: In vitro minimum inhibitory concentration was determined for antibacterial activity against Acinetobacter calcoaceticus 15473 strain.; assay type: functional
Bacillus subtilis = assay: In vitro minimum inhibitory concentration was determined for antibacterial activity against Bacillus subtilis ATCC 6633 strain.; assay type: functional
Citrobacter koseri = assay: In vitro minimum inhibitory concentration was determined for antibacterial activity against Citrobacter diversus 2046E strain.; assay type: functional
Escherichia coli [2] = assay: In vitro minimum inhibitory concentration was determined for antibacterial activity against Escherichia coli 10536 strain; assay type: functional
Escherichia coli [3] = assay: In vitro minimum inhibitory concentration was determined for antibacterial activity against Escherichia coli 3190Y strain.; assay type: functional
Escherichia coli [4] = assay: In vitro minimum inhibitory concentration was determined for antibacterial activity against Escherichia coli 851E strain.; assay type: functional
Escherichia coli [5] = assay: In vitro minimum inhibitory concentration was determined for antibacterial activity against Escherichia coli TEM5 3739E strain.; assay type: functional
Escherichia coli [6] = assay: In vitro minimum inhibitory concentration was determined for antibacterial activity against Escherichia coli TEM9 2639E strain.; assay type: functional
Enterobacter cloacae [7] = assay: In vitro minimum inhibitory concentration was determined for antibacterial activity against Enterobacter cloacae 1194E strain.; assay type: functional
Enterobacter cloacae [8] = assay: In vitro minimum inhibitory concentration was determined for antibacterial activity against Enterobacter cloacae p99 strain.; assay type: functional
Klebsiella aerogenes [9] = assay: In vitro minimum inhibitory concentration was determined for antibacterial activity against Klebsiella aerogenes 1076E strain.; assay type: functional
Klebsiella aerogenes [10] = assay: In vitro minimum inhibitory concentration was determined for antibacterial activity against Klebsiella aerogenes 1082E strain.; assay type: functional
Micrococcus luteus = assay: In vitro minimum inhibitory concentration was determined for antibacterial activity against Micrococcus luteus ATCC 9341 strain.; assay type: functional
Pseudomonas aeruginosa [11] = assay: In vitro minimum inhibitory concentration was determined for antibacterial activity against Pseudomonas aeruginosa 1012E strain.; assay type: functional
Pseudomonas aeruginosa [12] = assay: In vitro minimum inhibitory concentration was determined for antibacterial activity against Pseudomonas aeruginosa 10145 strain.; assay type: functional
Salmonella typhimurium = assay: In vitro minimum inhibitory concentration was determined for antibacterial activity against Salmonella Typhimurium 14028 strain.; assay type: functional, Salmonella enterica subsp. enterica serovar Typhimurium; conditions: Salmonella enterica
[13] = system: Staphylococcus epidermidis; assay: In vitro minimum inhibitory concentration was determined for antibacterial activity against Staphylococcus epidermis 178 strain.; assay type: functional
[14] = system: Staphylococcus epidermidis; assay: In vitro minimum inhibitory concentration was determined for antibacterial activity against Staphylococcus epidermis 887E strain.; assay type: functional
Staphylococcus aureus [15] = assay: In vitro minimum inhibitory concentration was determined for antibacterial activity against Staphylococcus aureus 6538p strain.; assay type: functional
Staphylococcus aureus [16] = assay: In vitro minimum inhibitory concentration was determined for antibacterial activity against Staphylococcus aureus 77 strain.; assay type: functional
Staphylococcus aureus [17] = assay: In vitro minimum inhibitory concentration was determined for antibacterial activity against Staphylococcus aureus giorgio strain.; assay type: functional
Staphylococcus aureus [18] = assay: In vitro minimum inhibitory concentration was determined for antibacterial activity against Staphylococcus aureus 241 strain.; assay type: functional
Enterococcus faecalis = assay: In vitro minimum inhibitory concentration was determined for antibacterial activity against […] 29212 strain.; assay type: functional

Row | Structure (SMILES) | MIC (Bacillus subtilis) [µg/mL] | MIC (Escherichia coli [3]) [µg/mL] | MIC (Escherichia coli [4]) [µg/mL] | MIC (Escherichia coli [5]) [µg/mL] | MIC (Escherichia coli [6]) [µg/mL] | MIC (Enterobacter cloacae [7]) [µg/mL] | MIC (Enterobacter cloacae [8]) [µg/mL] | MIC [1] [µg/mL] | MIC (Citrobacter koseri) [µg/mL] | MIC (Escherichia coli [2]) [µg/mL] | MIC (Klebsiella aerogenes [9]) [µg/mL] | MIC (Klebsiella aerogenes [10]) [µg/mL] | MIC (Micrococcus luteus) [µg/mL] | MIC [13] [µg/mL] | MIC [14] [µg/mL] | MIC (Staphylococcus aureus [15]) [µg/mL] | MIC (Staphylococcus aureus [16]) [µg/mL] | MIC (Staphylococcus aureus [17]) [µg/mL] | MIC (Staphylococcus aureus [18]) [µg/mL] | MIC (Enterococcus faecalis) [µg/mL] | other results
1 | Cc1c(N2CCNCC2)c(F)c2c(c1N)c(=O)c(C(=O)O)cn2C1CC1 | 0.031 (≈ 0.086 µM) | ≤ 0.008 | 0.031 (≈ 0.086 µM) | 0.5 (≈ 1.39 µM) | 0.031 (≈ 0.086 µM) | 0.063 (≈ 0.175 µM) | ≤ 0.008 | 0.13 (≈ 0.361 µM) | 0.063 (≈ 0.175 µM) | ≤ 0.008 | 0.25 (≈ 0.694 µM) | 0.031 (≈ 0.086 µM) | 4 (≈ 11.1 µM) | 16 (≈ 44.4 µM) | 0.13 (≈ 0.361 µM) | 0.25 (≈ 0.694 µM) | 0.5 (≈ 1.39 µM) | 0.25 (≈ 0.694 µM) | 16 (≈ 44.4 µM) | 4 (≈ 11.1 µM) | MIC (Pseudomonas aeruginosa [11]): 1 µg/mL (≈ 2.77 µM); MIC (Pseudomonas aeruginosa [12]): 2 µg/mL (≈ 5.55 µM); MIC (Salmonella typhimurium): 0.063 µg/mL (≈ 0.175 µM)
2 | O=C(O)c1cn(C2CC2)c2cc(N3CCNCC3)c(F)cc2c1=O [CIPROFLOXACIN] | – | ≤ 0.008 | – | 0.13 (≈ 0.392 µM) | – | – | – | 0.25 (≈ 0.754 µM) | 0.016 (≈ 0.0483 µM) | ≤ 0.008 | 0.13 (≈ 0.392 µM) | ≤ 0.008 | 4 (≈ 12.1 µM) | 128 (≈ 386 µM) | 0.13 (≈ 0.392 µM) | 0.13 (≈ 0.392 µM) | 0.25 (≈ 0.754 µM) | 0.25 (≈ 0.754 µM) | 128 (≈ 386 µM) | 0.5 (≈ 1.51 µM) | MIC (Pseudomonas aeruginosa [11]): 0.13 µg/mL (≈ 0.392 µM)
3 | CC1COc2c(N3CCN(C)CC3)c(F)cc3c(=O)c(C(=O)O)cn1c23 (configuration not stated) [OFLOXACIN] | 0.063 (≈ 0.174 µM) | – | 0.063 (≈ 0.174 µM) | – | 0.063 (≈ 0.174 µM) | 0.13 (≈ 0.36 µM) | 0.031 (≈ 0.0858 µM) | 0.25 (≈ 0.692 µM) | 0.13 (≈ 0.36 µM) | 0.031 (≈ 0.0858 µM) | 0.25 (≈ 0.692 µM) | 0.13 (≈ 0.36 µM) | 2 (≈ 5.53 µM) | 32 (≈ 88.6 µM) | 0.25 (≈ 0.692 µM) | 0.5 (≈ 1.38 µM) | 0.25 (≈ 0.692 µM) | 0.5 (≈ 1.38 µM) | 64 (≈ 177 µM) | 2 (≈ 5.53 µM) | MIC (Salmonella typhimurium): 0.13 µg/mL (≈ 0.36 µM)

Now from value to compound, other results behind:

Row | MIC (Bacillus subtilis) [µg/mL] | MIC (Escherichia coli [3]) [µg/mL] | MIC (Escherichia coli [4]) [µg/mL] | MIC (Escherichia coli [5]) [µg/mL] | MIC (Escherichia coli [6]) [µg/mL] | MIC (Enterobacter cloacae [7]) [µg/mL] | MIC (Enterobacter cloacae [8]) [µg/mL] | Structure (SMILES) | MIC [1] [µg/mL] | MIC (Citrobacter koseri) [µg/mL] | MIC (Escherichia coli [2]) [µg/mL] | MIC (Klebsiella aerogenes [9]) [µg/mL] | MIC (Klebsiella aerogenes [10]) [µg/mL] | MIC (Micrococcus luteus) [µg/mL] | MIC [13] [µg/mL] | MIC [14] [µg/mL] | MIC (Staphylococcus aureus [15]) [µg/mL] | MIC (Staphylococcus aureus [16]) [µg/mL] | MIC (Staphylococcus aureus [17]) [µg/mL] | MIC (Staphylococcus aureus [18]) [µg/mL] | MIC (Enterococcus faecalis) [µg/mL] | other results
4 | 0.063 (≈ 0.168 µM) | 0.016 (≈ 0.0427 µM) | 0.063 (≈ 0.168 µM) | 0.5 (≈ 1.34 µM) | 0.063 (≈ 0.168 µM) | 0.13 (≈ 0.347 µM) | 0.016 (≈ 0.0427 µM) | Cc1c(N2CCNC(C)C2)c(F)c2c(c1N)c(=O)c(C(=O)O)cn2C1CC1 (configuration not stated) | 0.13 (≈ 0.347 µM) | 0.063 (≈ 0.168 µM) | 0.063 (≈ 0.168 µM) | 0.25 (≈ 0.668 µM) | 0.13 (≈ 0.347 µM) | 8 (≈ 21.4 µM) | 16 (≈ 42.7 µM) | 0.25 (≈ 0.668 µM) | 0.5 (≈ 1.34 µM) | 0.5 (≈ 1.34 µM) | 0.25 (≈ 0.668 µM) | 16 (≈ 42.7 µM) | 2 (≈ 5.34 µM) | MIC (Pseudomonas aeruginosa [11]): 2 µg/mL (≈ 5.34 µM); MIC (Pseudomonas aeruginosa [12]): 2 µg/mL (≈ 5.34 µM); MIC (Salmonella typhimurium): 0.13 µg/mL (≈ 0.347 µM)
5 | 0.063 (≈ 0.175 µM) | 0.031 (≈ 0.086 µM) | 0.13 (≈ 0.361 µM) | 1 (≈ 2.77 µM) | 0.13 (≈ 0.361 µM) | 0.25 (≈ 0.694 µM) | 0.031 (≈ 0.086 µM) | Cc1c(N2CCC(N)C2)c(F)c2c(c1N)c(=O)c(C(=O)O)cn2C1CC1 (configuration not stated) | 0.5 (≈ 1.39 µM) | 0.13 (≈ 0.361 µM) | 0.031 (≈ 0.086 µM) | 0.5 (≈ 1.39 µM) | 0.13 (≈ 0.361 µM) | 8 (≈ 22.2 µM) | 16 (≈ 44.4 µM) | 0.25 (≈ 0.694 µM) | 0.25 (≈ 0.694 µM) | 0.5 (≈ 1.39 µM) | 0.25 (≈ 0.694 µM) | 8 (≈ 22.2 µM) | 8 (≈ 22.2 µM) | MIC (Pseudomonas aeruginosa [11]): 1 µg/mL (≈ 2.77 µM); MIC (Pseudomonas aeruginosa [12]): 4 µg/mL (≈ 11.1 µM); MIC (Salmonella typhimurium): 0.25 µg/mL (≈ 0.694 µM)
6 | 0.016 (≈ 0.0427 µM) | 0.016 (≈ 0.0427 µM) | 0.063 (≈ 0.168 µM) | 0.5 (≈ 1.34 µM) | 0.13 (≈ 0.347 µM) | 0.031 (≈ 0.0828 µM) | 0.031 (≈ 0.0828 µM) | Cc1c(N2CCC(CN)C2)c(F)c2c(c1N)c(=O)c(C(=O)O)cn2C1CC1 (configuration not stated) | 0.13 (≈ 0.347 µM) | 0.13 (≈ 0.347 µM) | 0.031 (≈ 0.0828 µM) | 0.25 (≈ 0.668 µM) | 0.13 (≈ 0.347 µM) | 4 (≈ 10.7 µM) | 16 (≈ 42.7 µM) | 0.031 (≈ 0.0828 µM) | 0.031 (≈ 0.0828 µM) | 0.063 (≈ 0.168 µM) | 0.031 (≈ 0.0828 µM) | 8 (≈ 21.4 µM) | 0.25 (≈ 0.668 µM) | MIC (Pseudomonas aeruginosa [11]): 1 µg/mL (≈ 2.67 µM); MIC (Pseudomonas aeruginosa [12]): 2 µg/mL (≈ 5.34 µM); MIC (Salmonella typhimurium): 0.13 µg/mL (≈ 0.347 µM)
